Data on twelve compounds can be found in patent publication US20140348966A1, “GARCINIA BUCHANANII BAKER COMPOUNDS, COMPOSITIONS AND RELATED METHODS” (priority 2011, published 2014).

The subject of test [1] is S-neurons in the myenteric ganglia of guinea pig distal colon. Kind of test: intracellular recording of evoked fast excitatory postsynaptic potentials (fEPSPs). The conditions noted are these: naloxone 10 μmol/L; yohimbine 1 μmol/L. The method, then:
Intracellular Recording: To study fast excitatory postsynaptic potentials, longitudinal muscle-myenteric plexus preparations of guinea pig colon were pinned and stretched in a 2.5 mL Sylgard-lined recording chamber. […] Myenteric ganglia were visualized at ×200 using Hoffman modulation contrast optics on an inverted microscope (Nikon Diaphot, […]., USA). Individual neurons were randomly impaled using glass microelectrodes, which were filled to the shoulder with 1.0 mol L^-1 KCl and topped off with 2.0 mol L^-1 KCl, generating a range of 50-150 MΩ input resistance. Membrane potential was measured with an Axoclamp-2A amplifier (Axon Instruments, Union City, Calif., USA) and the electrical signals were acquired and analyzed using PowerLab Chart version 5.01 (ADlnstruments, Castle Hills, Australia). Input resistance and resting membrane potential were determined for neurons before and after exposure to G. buchananii extract. Using monopolar extracellular electrodes made from Teflon®-insulated platinum wire, synaptic input to myenteric neurons was elicited by direct single pulse stimuli (0.5 ms duration) applied to interganglionic fiber tracts. […] The amplitude was measured by taking the difference in voltage between the peak of each fEPSP and the membrane holding potential. […]

Test [2] in a line: oxygen radical absorbance capacity (ORAC) assay. The class given is biochemical. The conditions noted are these: isolated and reference compounds. The method, then: ORAC assay was carried out according to the method of Ou, G. and colleagues (1993) with some modifications. Trolox and FL were used as a standard and a fluorescent probe respectively. Free radicals were produced by AAPH to oxidize FL. Different dilutions of Trolox ([…]) and appropriate dilutions of tested sample were prepared with phosphate buffer (10 mM, pH 7.4). Trolox dilution ([…]) or sample solution were pipetted into a well of 96-well black microplate (VWR) and then FL (150 mL, 10 nM) was added. The reaction mixture was incubated at 37° C. for 30 min Afterward s, fluorescence was measured every 90 sec at the excitation of 485 nm and the emission of 520 nm using FLUOstar OPTIMA. After 3 cycles, AAPH ([…], 240 mM) was added quickly, and then the measurement was resumed and continued up to 90 min (60 cycles in total). The background signal was determined using the first 3 cycles. The ORAC values were calculated according to the method of Ou, G. and colleagues (1993) and expressed as Trolox equivalent (mmol TE/mmol). After freeze-drying in triplicate, MPLC fractions M1-M8 were analyzed in natural concentrations.

A short description of test [3]: hydrogen peroxide scavenging assay. The class given is biochemical. Particulars: isolated and reference compounds; read-out: H2O2 assay EC50. The method, then:
Hydrogen peroxide scavenging assay was performed in accordance with the method of Ichikawa, M. and colleagues (2002). Sample solutions at appropriate concentration were prepared using phosphate buffer (100 mM, pH 6.0). Sample solution ([…]), phosphate buffer (30 mL, 100 mM, pH 6.0), and hydrogen peroxide solution (10 mL, 500 mM) were mixed in 96-well clear microplate (VWR, Ismaning, Germany). Then peroxidase (40 mL, 150 U/mL) and ABTS (40 mL, 0.1%) were added. The microplate was incubated at 37° C. for 15 min. The absorbance (A) of each well was measured at 414 nm with FLUOstar OPTIMA (BMG LABTECH, Offenburg, Germany). […] After freeze-drying three times 1 MPLC fractions M1-M8 were analyzed in natural concentrations.
E=[(A−Ablank)control−(A−Ablank)test]/(A−Ablank)control·100

The test system of test [4] is guinea pig colon circular smooth muscle cells (CSMC). Description: intracellular recording of slow wave action potentials, colon circular smooth muscle. The conditions noted are these: extract 0.5 g stem bark powder/100 ml Krebs; manniflavanone 41.0 mg/100 mL Krebs. The method, then:
(§1) Calcium imaging and standard intracellular microelectrode recording were used to determine the effect of G. buchananii extract on the discharge and frequency of Ca^2+ transients, Ca^2+ flashes and Ca^2+ waves. Six fractions (M1-M5 and M7) collected using medium pressure liquid chromatography and manniflavanone, a pure compound from M3 were analyzed for the effect on the resting membrane potential and action potentials in intact GBSM preparations, and slow wave action potentials in CSMC in guinea pig and porcine colon.

Test [5] deals with guinea pig gallbladder smooth muscle cells (GBSM). Kind of test: intracellular microelectrode recording of action potentials, gallbladder smooth muscle. The conditions noted are these: extract 0.5 g stem bark powder/100 ml; manniflavanone 41.0 mg/100 mL Krebs. Here is the method: as §1
Test [6] concerns guinea pig distal colon. Description: fecal pellet propulsion motility assay in isolated distal colon (GIMM). Particulars: MPLC fractions and their main compounds, serosal application in Krebs. Here is the method:
Gastrointestinal Motility Assays: Segments (˜10 cm long) of distal colon were pinned on either end in a Sylgard-lined 50 mL organ bath, continuously perfused with oxygenated Krebs solution (rate: 10 mL min^−1) and maintained at temperatures between 36 and 37° C. Tissues were initially allowed to equilibrate for 30 mins in re-circulating Krebs solution. Colonic motility was studied using the Gastronintestinal Motility Monitoring system (GIMM; Med-Associates Inc., Saint Albans, Vt., USA), which included a digital video camera (Catamount Research and Development Inc, St Albans, Vt., USA) to film fecal pellet propulsion. Trials were separated by 5-min recovery periods between successive pellet runs. The GIMM system software calculated velocities by tracking pellets as they traversed colon segments. After initial equilibration, five pellet propulsion trials in vehicle solution were obtained to determine the basal velocity for each tissue preparation. To reduce variations between runs and experiments, the values obtained were used to generate a normalized basal velocity by dividing the values of the 4th-5th runs by the value of the 1st-2nd runs. Garcinia buchananii stem bark extract and test compounds dissolved in 100 mL of Krebs solution were superfused either into the organ bath or into the lumen of the colon using polyethylene tubing [PE 205; outside diameter 9.5 mm (BD-Worldwide, Sparks, Md., USA)]. The effects of extract and test compounds were evaluated by obtaining velocities of four trials taken at 5-min intervals (5-20 min) Normalized velocity data for these treatments were obtained by dividing the test velocities acquired by the average velocity of the five pellet propulsion runs performed in vehicle solution (runs 1-5, above). Normalized data became ratios without units, and were presented as a percent velocity of basal activity for each tissue. Velocities of pellet propulsion were also studied during washout of tissue with Krebs solution (after extract or test compound application) for 20 min
A segment (˜10-12 cm long) of distal colon was pinned on either end in a Sylgard-lined 50 mL organ bath being continuously perfused with oxygenated Krebs solution (rate: 10 mL min^−1) and maintained at temperatures between 36-37° C. Nail-polish-coated guinea-pig pellets similar in shape and size to the “native” colonic fecal pellets were used to determine propulsive velocities using the Gastrointestinal Motility Monitoring system (Med-Associates Inc., Saint Albans, Vt., USA) for filming pellet propulsion as described by Hoffman and others (2010). Velocity was calculated based on the time required for pellets to traverse 5-6 cm of the central colon segment ending 1 cm from the aboral end. Data collection started after 30 minutes of equilibration. A five-minute interval was used to allow equilibration of motor activity between successive pellet runs. Baseline velocities were measured for 20 minutes.
In intraluminal studies, the aqueous extract was prepared by suspending 2 g of G. buchananii bark powder in 100 mL Krebs, whereas 1 g G. buchananii bark powder prepared in the same manner was used for bath (serosal) applications. The extract-Krebs mixture was continuously stirred for 30 minutes and filtered using analytical filter paper (Schleicher and Schuell Blue Ribbon filter paper 589/3; 0.2 μm retention). Garcinia buchananii extract and test compounds were delivered to isolated colons in Krebs solution, and evaluated for effects on pellet propulsion during 20-25 minute time intervals. Intraluminal drug deliveries (350 μL min^−1 Krebs solution) were performed using polyethylene tubing (PE 205; outside diameter 9.5 mm) inserted ˜1.5 cm into the oral end of the segments. In bath deliveries, G. buchananii extract and test compounds were superfused directly into the organ bath. Studies involving PTLC fractions were performed using the organ bath delivery method only.

The conditions of test [7]: cited from earlier work.
Where [8] appears, read: Values from Wolfe and Liu (stereochemistry of naringenin and taxifolin not stated).

Where a name gives a salt, the structure may show the parent alone. Read-outs that look alike come from different tables or passages of the source.

Take `COC(=O)[C@@H]1[C@H]2C[C@H]3c4[nH]c5ccccc5c4CCN3C[C@@H]2CC[C@@H]1O` [yohimbine, yohimbine hydrochloride]: the “effect of antagonist alone on fEPSPs” value in test [1] is “had no effect on fEPSPs”.

`O=C1CC(c2ccc(O)cc2)Oc2cc(O)cc(O)c21` (racemic) [(±)-naringenin]: the ORAC assay in test [2] is given as 3.96 μmol TE/μmol. Also, in test [3], the EC50 (commonly the midpoint of the concentration-response curve) was determined as 8.6 µM.

As for `O=C1c2c(O)cc(O)c([C@@H]3C(=O)c4c(O)cc(O)cc4O[C@H]3c3ccc(O)c(O)c3)c2O[C@H](c2ccc(O)c(O)c2)[C@H]1O` [Compound 3, (2R,3S,2″R,3″R)-manniflavanone], the ORAC assay in test [2] is 13.73 μmol TE/μmol. For the same compound, the “slow wave action potentials (SW) in CSMC” value in test [4] is reported as “inhibits spikes of SW”. Besides, the “action potentials in GBSM” value in test [5] was “inhibits action potentials”. The EC50 in test [3] stood at 2.8 µM.

With `O=C1C[C@@H](c2ccc(O)c(O)c2)Oc2c1c(O)cc(O)c2[C@@H]1C(=O)c2c(O)cc(O)cc2O[C@H]1c1ccc(O)c(O)c1` [Compound 5, (2R,3S,2″S)-2-(3,4-dihydroxyphenyl)-2,2′,3,3′-tetrahydro-5,5,7,7-tetrahydroxy-2′-(3,4-dihydroxyphenyl)-[3,8′-Bi-4H-1-benzopyran]-4,4′-dione], in test [2], the ORAC assay was found to be 10.50 μmol TE/μmol. For the same compound, the “effect on pellet propulsion velocity” value in test [6] is “inhibits guinea pig colon propulsive motility”. For the same compound, the concentration giving a half-maximal response (EC50) in test [3] came out at 14.4 µM.

`Oc1cc(O)c2c(c1)O[C@H](c1ccc(O)c(O)c1)[C@H](O)C2` [(−)-epicatechin] returned an ORAC assay in test [2] of 9.65 μmol TE/μmol. In addition, the “ORAC, Literature” value in test [7] (setting [8]) is on record as 9.14^6 μmol TE/μmol. The EC50 in test [3] is 4.1 µM.

For the compound `C=CCN1CC[C@]23c4c5ccc(O)c4O[C@H]2C(=O)CC[C@@]3(O)[C@H]1C5` [naloxone, naloxone hydrochloride], the “effect of antagonist alone on fEPSPs” value in test [1] is reported as “had no effect on fEPSPs”.

Regarding `O=c1c(O)c(-c2ccc(O)c(O)c2)oc2cc(O)cc(O)c12` [quercetin], the ORAC assay in test [2] was 5.61 μmol TE/μmol. For the same compound, the entries for the “ORAC, Literature” value in test [7] (Values from Ou et al.) and in test [7] (setting [8]) were 7.28 μmol TE/μmol and 8.04 μmol TE/μmol, respectively. The EC50 in test [3] was found to be 6.1 µM.

In test [2], `O=C1c2c(O)cc(O)cc2O[C@H](c2ccc(O)c(O)c2)[C@H]1O` [Compound 6, (+)-(2R,3R)-Taxifolin] showed an ORAC assay of 7.63 μmol TE/μmol. Moreover, in test [3], the EC50 is 11.3 µM.

`O=C1O[C@H]([C@@H](O)CO)C(O)=C1O` [ascorbic acid]: in test [2], the ORAC assay stood at 0.34 μmol TE/μmol. In addition, the concentration for a half-maximal effect (EC50) in test [3] came out at 18.5 µM.

Consider `O=C1c2c(cc(O)c([C@@H]3O[C@H](CO)[C@@H](O)[C@H](O)[C@H]3O)c2O)O[C@H](c2ccc(O)c(O)c2)[C@H]1O` [Compound 1, (2R,3R)-Taxifolin-6-C-β-D-glucopyranoside], for which the ORAC assay in test [2] amounted to 9.57 μmol TE/μmol. Also, the 50% effective concentration (EC50) in test [3] stood at 11 µM.

Turning to `O=C1c2c(O)cc(O)c([C@@H]3C(=O)c4c(O)cc(O)cc4O[C@H]3c3ccc(O)cc3)c2O[C@H](c2ccc(O)c(O)c2)[C@H]1O` [Compound 4, (2R,3S,2″R,3″R)-GB-2], in test [2], the ORAC assay came to 12.10 μmol TE/μmol. Moreover, the “effect on pellet propulsion velocity” value in test [6] is listed as “inhibits guinea pig colon propulsive motility”. The 50% effective concentration (EC50) in test [3] is 2.2 µM.

On to `O=C1c2c(cc(O)c([C@@H]3OC(CO)[C@@H](O)[C@H](O)C3O)c2O)O[C@H](c2ccc(O)cc2)[C@H]1O` (stereo partly drawn) [Compound 2, (2R,3R)-Aromadendrin-6-C-β-D-glucopyranoside], for which, in test [2], the ORAC assay was determined as 4.23 μmol TE/μmol. In addition, the concentration for a half-maximal effect (EC50) in test [3] came out at 10.9 µM.
